Results as given in ChEMBL document CHEMBL1777747, “Design and synthesis of an ER-specific fluorescent probe based on carboxylesterase activity with quinone methide cleavage process” (Bioorg Med Chem Lett, 2011).

Legend:
Sus scrofa = species: Sus scrofa; assay: Activity at porcine liver esterase assessed as amount of enzyme required to liberate 1 umol of resorufin/min from compound by fluorescence assay
HT-1080 = assay: Cytotoxicity against human HT1080 cells by trypan blue method; format: cell-based
Cocaine esterase [1] = target: T1, Cocaine esterase (Homo sapiens, UniProt O00748); assay: Activity at carboxylesterase in human HT-1080 cells assessed as accumulation of resorufin in endoplasmic reticulum at 50 uM after 120 mins by phase contrast microscopic analysis; format: ADME, cell-based; settings: ht-1080, 2 h
T1 sequence (O00748 whole entry): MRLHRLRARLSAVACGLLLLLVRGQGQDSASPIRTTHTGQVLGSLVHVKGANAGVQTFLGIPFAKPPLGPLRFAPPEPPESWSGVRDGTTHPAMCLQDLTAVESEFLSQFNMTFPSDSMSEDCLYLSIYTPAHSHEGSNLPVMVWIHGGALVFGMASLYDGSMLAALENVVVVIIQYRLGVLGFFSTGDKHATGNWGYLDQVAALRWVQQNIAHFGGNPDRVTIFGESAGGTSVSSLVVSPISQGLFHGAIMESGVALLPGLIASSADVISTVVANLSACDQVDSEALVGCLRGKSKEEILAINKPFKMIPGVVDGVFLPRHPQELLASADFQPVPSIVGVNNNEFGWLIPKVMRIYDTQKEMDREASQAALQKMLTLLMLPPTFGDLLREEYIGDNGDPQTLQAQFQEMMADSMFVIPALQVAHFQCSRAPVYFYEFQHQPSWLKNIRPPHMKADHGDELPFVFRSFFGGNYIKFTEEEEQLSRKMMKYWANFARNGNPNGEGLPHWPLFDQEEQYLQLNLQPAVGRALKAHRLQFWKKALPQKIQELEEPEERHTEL

[2] = Activity at carboxylesterase in african green monkey COS1 cells assessed as accumulation of resorufin in endoplasmic reticulum at 50 uM after 120 mins by phase contrast microscopic analysis; format: ADME, cell-based; settings: chlorocebus aethiops, cos-1, 2 h
Cocaine esterase [3] = target: T1, Cocaine esterase; assay: Activity at carboxylesterase in human HT-1080 cells assessed as accumulation of resorufin in nucleus at 50 uM after 120 mins by phase contrast microscopic analysis; format: ADME, cell-based; settings: ht-1080, 2 h
COS-1 = assay: Cytotoxicity against african green monkey COS1 cells by trypan blue method; format: cell-based; settings: chlorocebus aethiops
[4] = Activity at carboxylesterase in african green monkey COS1 cells assessed as accumulation of resorufin in nucleus at 50 uM after 120 mins by phase contrast microscopic analysis; format: ADME, cell-based; settings: chlorocebus aethiops, cos-1, 2 h

In the case of `CCCC(=O)Oc1ccc(COc2ccc3nc4ccc(=O)cc-4oc3c2)cc1`, the Activity (Sus scrofa) is reported as 0.05 U/mg, the Activity (HT-1080) is reported as “Non-toxic” and the Activity (Cocaine esterase [1]) is reported as “Active”. The Activity [2] was “Active”, the Activity (Cocaine esterase [3]) was “Active” and the Activity (COS-1) was “Non-toxic”. For the same compound, the Activity [4] was “Active”.
